Tested on: MV-4-11 cells
Assay: Gene expression microarray analysis (Affymetrix PrimeView) and GSEA
Format: cell-based, human
Set-up: RFU PODN (11730768_x_at) / Fold change /veh PODN (11730768_x_at) / RFU LINC00158 (11744669_a_at) / Fold change /veh LINC00158 (11744669_a_at) / RFU DUSP10 (11751237_a_at) / Fold change /veh DUSP10 (11751237_a_at) / RFU ID3 (11757404_x_at) / Fold change /veh ID3 (11757404_x_at) / RFU PLEKHG5 (11737974_s_at) / Fold change /veh PLEKHG5 (11737974_s_at) / RFU LRRC4B (11730491_at) / Fold change /veh LRRC4B (11730491_at) / RFU GIMAP4 (11747438_a_at) / Fold change /veh GIMAP4 (11747438_a_at) / RFU KRT8 (11758183_x_at) / Fold change /veh KRT8 (11758183_x_at) / RFU CNN1 (11734310_a_at) / Fold change /veh CNN1 (11734310_a_at) / RFU VPS37D (11726825_at) / Fold change /veh VPS37D (11726825_at) / RFU C10orf10 (11716522_x_at) / Fold change /veh C10orf10 (11716522_x_at) / RFU KIR2DL2 /// KIR2DL4 /// KIR2DL5A /// KIR2DL5B /// KIR2DS1 /// KIR2DS2 /// KIR2DS3 /// KIR2DS4 /// KIR3DL3 /// KIR3DL3 /// KIR3DS1 (11738374_at) / Fold change /veh KIR2DL2 /// KIR2DL4 /// KIR2DL5A /// KIR2DL5B /// KIR2DS1 /// KIR2DS2 /// KIR2DS3 /// KIR2DS4 /// KIR3DL3 /// KIR3DL3 /// KIR3DS1 (11738374_at) / RFU C1QL1 (11718748_at) / Fold change /veh C1QL1 (11718748_at) / RFU TMPRSS4 (11747572_a_at) / Fold change /veh TMPRSS4 (11747572_a_at) / RFU HAMP (11756126_x_at) / Fold change /veh HAMP (11756126_x_at) / RFU RNFT2 (11725882_a_at) / Fold change /veh RNFT2 (11725882_a_at) / RFU NR4A2 (11747474_a_at) / Fold change /veh NR4A2 (11747474_a_at) / RFU ABCC12 (11746883_a_at) / Fold change /veh ABCC12 (11746883_a_at) / RFU TMEM136 (11760407_x_at) / Fold change /veh TMEM136 (11760407_x_at) / RFU CLDN22 /// WWC2 (11732394_at) / Fold change /veh CLDN22 /// WWC2 (11732394_at) / RFU HLA-DPB1 (11760878_x_at) / Fold change /veh HLA-DPB1 (11760878_x_at) / RFU SPINT1 (11716480_a_at) / Fold change /veh SPINT1 (11716480_a_at) / RFU GAP43 (11754022_s_at) / Fold change /veh GAP43 (11754022_s_at) / RFU A4GNT (11735810_at) / Fold change /veh A4GNT (11735810_at) / RFU PRB3 (11715151_x_at) / Fold change /veh PRB3 (11715151_x_at) / RFU TUBB4B (11761932_at) / Fold change /veh TUBB4B (11761932_at) / RFU CAPN14 (11732068_a_at) / Fold change /veh CAPN14 (11732068_a_at) / RFU TMCC2 (11721928_a_at) / Fold change /veh TMCC2 (11721928_a_at) / RFU IRGQ (11745062_a_at) / Fold change /veh IRGQ (11745062_a_at) / RFU FAM174B (11720279_a_at) / Fold change /veh FAM174B (11720279_a_at) / RFU TMPRSS4 (11748680_a_at) / Fold change /veh TMPRSS4 (11748680_a_at) / RFU FAM212B (11763350_a_at) / Fold change /veh FAM212B (11763350_a_at) / RFU PLEKHG5 (11743358_a_at) / Fold change /veh PLEKHG5 (11743358_a_at) / RFU ZSCAN30 (11745921_a_at) / Fold change /veh ZSCAN30 (11745921_a_at) / RFU CMKLR1 (11741424_a_at) / Fold change /veh CMKLR1 (11741424_a_at) / RFU LOC101060620 /// MAPK8IP1 (11723275_at) / Fold change /veh LOC101060620 /// MAPK8IP1 (11723275_at) / RFU SPTSSB (11747773_x_at) / Fold change /veh SPTSSB (11747773_x_at) / RFU PRSS12 (11739890_at) / Fold change /veh PRSS12 (11739890_at) / RFU BIN1 (11741810_x_at) / Fold change /veh BIN1 (11741810_x_at) / RFU WNT11 (11732464_a_at) / Fold change /veh WNT11 (11732464_a_at) / RFU C10orf10 (11716521_a_at) / Fold change /veh C10orf10 (11716521_a_at) / RFU C5orf56 (11738089_at) / Fold change /veh C5orf56 (11738089_at) / RFU CYB561 (11721691_x_at) / Fold change /veh CYB561 (11721691_x_at) / RFU ANKRD19P (11752326_a_at) / Fold change /veh ANKRD19P (11752326_a_at) / RFU OR2T12 /// OR2T33 /// OR2T8 (11738714_s_at) / Fold change /veh OR2T12 /// OR2T33 /// OR2T8 (11738714_s_at) / RFU VCAN (11748164_a_at) / Fold change /veh VCAN (11748164_a_at) / RFU JSRP1 (11732532_at) / Fold change /veh JSRP1 (11732532_at) / RFU KRTAP10-11 (11738290_x_at) / Fold change /veh KRTAP10-11 (11738290_x_at) / RFU MYO3A (11730013_a_at) / Fold change /veh MYO3A (11730013_a_at) / RFU EBF3 (11725865_a_at) / Fold change /veh EBF3 (11725865_a_at) / RFU CAMK2N1 (11719241_x_at) / Fold change /veh CAMK2N1 (11719241_x_at) / RFU C5orf56 (11738088_a_at) / Fold change /veh C5orf56 (11738088_a_at) / RFU OLFML3 (11715873_a_at) / Fold change /veh OLFML3 (11715873_a_at) / RFU LOC100653217 /// NTM (11731650_a_at) / Fold change /veh LOC100653217 /// NTM (11731650_a_at) / RFU MAPK11 (11762145_a_at) / Fold change /veh MAPK11 (11762145_a_at) / RFU FIZ1 (11724087_x_at) / Fold change /veh FIZ1 (11724087_x_at) / RFU OASL (11726364_x_at) / Fold change /veh OASL (11726364_x_at) / RFU SOX15 (11748057_x_at) / Fold change /veh SOX15 (11748057_x_at) / RFU CD79A (11719716_a_at) / Fold change /veh CD79A (11719716_a_at) / RFU HIST1H1D (11736915_at) / Fold change /veh HIST1H1D (11736915_at) / RFU CASKIN2 (11723855_a_at) / Fold change /veh CASKIN2 (11723855_a_at) / RFU LOC730098 (11760151_x_at) / Fold change /veh LOC730098 (11760151_x_at) / RFU OR4N2 (11742367_at) / Fold change /veh OR4N2 (11742367_at) / RFU PRRT2 (11749266_a_at) / Fold change /veh PRRT2 (11749266_a_at) / RFU SNX32 (11753110_a_at) / Fold change /veh SNX32 (11753110_a_at) / RFU CDHR5 (11726645_a_at) / Fold change /veh CDHR5 (11726645_a_at) / RFU RCAN1 (11760418_a_at) / Fold change /veh RCAN1 (11760418_a_at) / RFU FAM167A (11723789_a_at) / Fold change /veh FAM167A (11723789_a_at) / RFU FAM26E (11764081_at) / Fold change /veh FAM26E (11764081_at) / RFU ISYNA1 (11749810_s_at) / Fold change /veh ISYNA1 (11749810_s_at) / RFU ACY1 (11761880_at) / Fold change /veh ACY1 (11761880_at) / RFU 11764098_at / Fold change /veh 11764098_at / RFU SAMD14 (11745864_x_at) / Fold change /veh SAMD14 (11745864_x_at) / RFU NPB (11741838_a_at) / Fold change /veh NPB (11741838_a_at) / RFU TMPRSS6 (11731388_a_at) / Fold change /veh TMPRSS6 (11731388_a_at) / RFU KRTAP10-2 (11738614_at) / Fold change /veh KRTAP10-2 (11738614_at) / RFU ARHGAP8 /// PRR5-ARHGAP8 (11727945_x_at) / Fold change /veh ARHGAP8 /// PRR5-ARHGAP8 (11727945_x_at) / RFU KRTAP5-7 /// NADSYN1 (11734609_at) / Fold change /veh KRTAP5-7 /// NADSYN1 (11734609_at) / RFU RASL12 (11751679_a_at) / Fold change /veh RASL12 (11751679_a_at) / RFU CDKN2B (11736163_a_at) / Fold change /veh CDKN2B (11736163_a_at) / RFU PRF1 (11729649_at) / Fold change /veh PRF1 (11729649_at) / RFU, ZNF638 /// ZNF638-IT1 / Fold change vs veh, ZNF638 /// ZNF638-IT1 / RFU, PANK3 / Fold change vs veh, PANK3 / RFU, SH3YL1 / Fold change vs veh, SH3YL1 / RFU, ZEB2 / Fold change vs veh, ZEB2 / RFU, NRIP1 / Fold change vs veh, NRIP1 / RFU, PTTG1IP / Fold change vs veh, PTTG1IP / RFU, CAPN2 / Fold change vs veh, CAPN2 / RFU, MED14 / Fold change vs veh, MED14 / RFU, SNORA58 / Fold change vs veh, SNORA58 / RFU, C1orf63 / Fold change vs veh, C1orf63 / RFU, LRRFIP1 / Fold change vs veh, LRRFIP1 / RFU, NDUFAF7 / Fold change vs veh, NDUFAF7 / RFU, SLC12A2 / Fold change vs veh, SLC12A2 / RFU, IBTK / Fold change vs veh, IBTK / RFU, ESF1 / Fold change vs veh, ESF1 / Fold change vs veh, TMEM50B / RFU, TAOK1 / Fold change vs veh, TAOK1 / RFU, ACBD3 / Fold change vs veh, ACBD3 / RFU, TMA16 / Fold change vs veh, TMA16 / RFU, RWDD3 / Fold change vs veh, RWDD3 / RFU, BCAT1 / Fold change vs veh, BCAT1 / RFU, EDEM3 / Fold change vs veh, EDEM3 / RFU, TMEM33 / Fold change vs veh, TMEM33 / RFU, WDR75 / Fold change vs veh, WDR75 / RFU, AHCTF1 / Fold change vs veh, AHCTF1 / RFU, TFRC / Fold change vs veh, TFRC / RFU, ZDHHC17 / Fold change vs veh, ZDHHC17 / RFU, NOM1 / Fold change vs veh, NOM1 / RFU, ARL8B / Fold change vs veh, ARL8B / RFU, ZBTB11 / Fold change vs veh, ZBTB11 / RFU, TAMM41 / Fold change vs veh, TAMM41 / RFU, KIAA1704 /// LOC100996395 / Fold change vs veh, KIAA1704 /// LOC100996395 / RFU, ING1 / Fold change vs veh, ING1 / RFU, TRMT61B / Fold change vs veh, TRMT61B / RFU, FUBP3 / Fold change vs veh, FUBP3 / RFU, TP53 / Fold change vs veh, TP53 / RFU, TNKS2 / Fold change vs veh, TNKS2 / RFU, ZFP14 / Fold change vs veh, ZFP14 / RFU, ACTR2 / Fold change vs veh, ACTR2 / RFU, PPP3R1 / Fold change vs veh, PPP3R1 / RFU, PIK3R1 / Fold change vs veh, PIK3R1 / RFU, HNRNPA1 / Fold change vs veh, HNRNPA1 / RFU, RNF170 / Fold change vs veh, RNF170 / RFU, ZNF28 / Fold change vs veh, ZNF28 / RFU, RNGTT / Fold change vs veh, RNGTT / RFU, OGT / Fold change vs veh, OGT / RFU, BRD1 / Fold change vs veh, BRD1 / RFU, MARS / Fold change vs veh, MARS / RFU, ZNF655 / Fold change vs veh, ZNF655 / RFU, FAHD1 / Fold change vs veh, FAHD1 / RFU, BDP1 / Fold change vs veh, BDP1 / RFU, LRRCC1 / Fold change vs veh, LRRCC1 / RFU, ARID1A / Fold change vs veh, ARID1A / RFU, ZNF146 / Fold change vs veh, ZNF146 / RFU, ZNF330 / Fold change vs veh, ZNF330 / RFU, GPN3 / Fold change vs veh, GPN3 / RFU, C9orf123 / Fold change vs veh, C9orf123 / RFU, N4BP2L2 / Fold change vs veh, N4BP2L2 / RFU, ARFIP1 / Fold change vs veh, ARFIP1 / RFU, FAM179B / Fold change vs veh, FAM179B / RFU, BCL10 / Fold change vs veh, BCL10 / RFU, UHRF1BP1L / Fold change vs veh, UHRF1BP1L / RFU, BET1 / Fold change vs veh, BET1 / RFU, CNOT2 / Fold change vs veh, CNOT2 / RFU, ZNF268 / Fold change vs veh, ZNF268 / Fold change vs veh, ZNF507 / RFU, DGCR2 / Fold change vs veh, DGCR2 / RFU, WDSUB1 / Fold change vs veh, WDSUB1 / Fold change vs veh, HSP90B1 /// MIR3652 / RFU, ADSS / Fold change vs veh, ADSS / RFU, GK / Fold change vs veh, GK / RFU, ZNF148 / Fold change vs veh, ZNF148 / RFU, TAF9 / Fold change vs veh, TAF9 / RFU, SLC1A5 / Fold change vs veh, SLC1A5 / RFU, SLMO2 / Fold change vs veh, SLMO2 / RFU, ABCC4 / Fold change vs veh, ABCC4 / RFU, LOC101060439 /// RAP1B / Fold change vs veh, LOC101060439 /// RAP1B / RFU, RFX7 / Fold change vs veh, RFX7 / RFU, GTPBP10 / Fold change vs veh, GTPBP10 / RFU, CNEP1R1 / Fold change vs veh, CNEP1R1 / RFU, BIVM-ERCC5 /// ERCC5 / Fold change vs veh, BIVM-ERCC5 /// ERCC5 / RFU, ILF3 / Fold change vs veh, ILF3 / RFU 11762660_at / Fold change /veh 11762660_at / RFU VCAN (11757783_s_at) / Fold change /veh VCAN (11757783_s_at) / RFU DDX43 (11728927_at) / Fold change /veh DDX43 (11728927_at) / RFU KRT8 (11758188_x_at) / Fold change /veh KRT8 (11758188_x_at) / RFU NKD1 (11759106_at) / Fold change /veh NKD1 (11759106_at) / RFU SRD5A1 (11742802_a_at) / Fold change /veh SRD5A1 (11742802_a_at) / RFU TPSAB1 /// TPSB2 (11721975_s_at) / Fold change /veh TPSAB1 /// TPSB2 (11721975_s_at) / RFU GSTM3 (11746129_a_at) / Fold change /veh GSTM3 (11746129_a_at) / RFU IL23R (11737362_x_at) / Fold change /veh IL23R (11737362_x_at) / RFU TMEM51 (11727254_a_at) / Fold change /veh TMEM51 (11727254_a_at) / RFU PIWIL2 (11732686_x_at) / Fold change /veh PIWIL2 (11732686_x_at) / RFU ORM1 (11744905_x_at) / Fold change /veh ORM1 (11744905_x_at) / RFU CCDC152 (11743942_at) / Fold change /veh CCDC152 (11743942_at) / RFU ECM1 (11717891_a_at) / Fold change /veh ECM1 (11717891_a_at) / RFU IL23R (11748794_a_at) / Fold change /veh IL23R (11748794_a_at) / RFU TNFAIP8L3 (11732012_x_at) / Fold change /veh TNFAIP8L3 (11732012_x_at) / RFU MBOAT4 (11741988_at) / Fold change /veh MBOAT4 (11741988_at) / RFU 11764193_at / Fold change /veh 11764193_at / RFU TMEM53 (11763286_at) / Fold change /veh TMEM53 (11763286_at) / RFU MAGEB2 (11727129_at) / Fold change /veh MAGEB2 (11727129_at) / RFU TMEM200A (11744735_a_at) / Fold change /veh TMEM200A (11744735_a_at) / RFU CCDC152 (11751479_a_at) / Fold change /veh CCDC152 (11751479_a_at) / RFU FAM211A (11726209_a_at) / Fold change /veh FAM211A (11726209_a_at) / RFU RGS16 (11746705_a_at) / Fold change /veh RGS16 (11746705_a_at) / RFU VCAN (11755009_s_at) / Fold change /veh VCAN (11755009_s_at) / RFU RHOB (11743442_s_at) / Fold change /veh RHOB (11743442_s_at) / RFU RGS16 (11720943_a_at) / Fold change /veh RGS16 (11720943_a_at) / RFU RGS16 (11720944_at) / Fold change /veh RGS16 (11720944_at) / RFU, VPS4B / Fold change vs veh, VPS4B / RFU, CREB1 / Fold change vs veh, CREB1 / RFU, DNAJC13 / Fold change vs veh, DNAJC13 / RFU, GNAQ / Fold change vs veh, GNAQ / RFU, CDK5R1 / Fold change vs veh, CDK5R1 / RFU, ZRANB3 / Fold change vs veh, ZRANB3 / RFU, CUL4A / Fold change vs veh, CUL4A / RFU, CCNY / Fold change vs veh, CCNY / RFU, UFL1 / Fold change vs veh, UFL1 / RFU, COG3 / Fold change vs veh, COG3 / RFU, DIAPH2 / Fold change vs veh, DIAPH2 / RFU, SKA2 / Fold change vs veh, SKA2 / RFU, AFF3 / Fold change vs veh, AFF3 / RFU, LMF1 / Fold change vs veh, LMF1 / RFU, IPO11 / Fold change vs veh, IPO11 / RFU, DFFB / Fold change vs veh, DFFB / RFU, FOXP1 / Fold change vs veh, FOXP1 / RFU, CARD8 / Fold change vs veh, CARD8 / RFU, STRN3 / Fold change vs veh, STRN3 / RFU, ADK / Fold change vs veh, ADK / RFU, RASSF2 / Fold change vs veh, RASSF2 / RFU, WIPF1 / Fold change vs veh, WIPF1 / RFU, LARP1B / Fold change vs veh, LARP1B / RFU, RASA1 / Fold change vs veh, RASA1 / RFU, RB1 / Fold change vs veh, RB1 / RFU, PPFIA1 / Fold change vs veh, PPFIA1 / RFU, MAT2A / Fold change vs veh, MAT2A / RFU, CCT5 / Fold change vs veh, CCT5 / RFU, WDR92 / Fold change vs veh, WDR92 / RFU, CUX1 / Fold change vs veh, CUX1 / RFU, TTC7A / Fold change vs veh, TTC7A / RFU, TMEM135 / Fold change vs veh, TMEM135 / RFU, DEPTOR / Fold change vs veh, DEPTOR / RFU, CPM / Fold change vs veh, CPM / RFU, DNAJB6 / Fold change vs veh, DNAJB6 / RFU, CACNA2D3 / Fold change vs veh, CACNA2D3 / RFU, DTX4 / Fold change vs veh, DTX4 / RFU, TFCP2 / Fold change vs veh, TFCP2 / RFU, GMCL1 /// GMCL1P1 / Fold change vs veh, GMCL1 /// GMCL1P1 / RFU, AEBP2 / Fold change vs veh, AEBP2 / RFU, SNHG1 /// SNORD22 /// SNORD25 /// SNORD26 /// SNORD27 /// SNORD28 /// SNORD29 /// SNORD31 / Fold change vs veh, SNHG1 /// SNORD22 /// SNORD25 /// SNORD26 /// SNORD27 /// SNORD28 /// SNORD29 /// SNORD31 / Fold change (Aza/veh), C12orf56 (ProbeSet 11735607_a_at) / Fold change (ACY-1035/veh), C12orf56 (ProbeSet 11735607_a_at) / Fold change (Aza/veh), FGFR1OP (ProbeSet 11751329_s_at) / Fold change (ACY-1035/veh), FGFR1OP (ProbeSet 11751329_s_at) / Fold change (Aza/veh), VPS36 (ProbeSet 11739960_a_at) / Fold change (ACY-1035/veh), VPS36 (ProbeSet 11739960_a_at) / RFU SYPL1 (11715823_x_at) / Fold change /veh SYPL1 (11715823_x_at) / RFU IGFBP7 (11715501_s_at) / Fold change /veh IGFBP7 (11715501_s_at) / RFU REEP3 (11722064_at) / Fold change /veh REEP3 (11722064_at) / RFU IGLL1 (11728026_x_at) / Fold change /veh IGLL1 (11728026_x_at): dose or concentration left out as unconfirmed
Conditions: MV-4-11 cells, 48 hours

SMILES: Nc1ccc(-c2cccs2)cc1NC(=O)c1ccc2c(c1)cc(C1CC1)n2CCN1CCOCC1 [ACY-1035]
- Fold change /veh CDKN2B (11736163_a_at): 1.20
